Common to all, as to assay: relative viability (nuclei count vs DMSO), 5 days (fraction); higher = more cells survive
Compound in assay [1]: N#CC1(c2ccc(NC(=O)c3cccnc3NCc3ccncc3)cc2)CCCC1 [Apatinib] + CC(=O)c1c(C)c2cnc(Nc3ccc(N4CCNCC4)cn3)nc2n(C2CCCC2)c1=O [Palbociclib] (partner 0.5 µM)
Summed up: (§1)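 Lung cancer cell lines were pin-tool dosed in 1536-well plates on the day after seeding, with either a lone drug or a fixed anchor-drug dose plus five library-drug doses (not always all listed) in √10 steps. Nuclei were counted on 4× images after 5 days. Relative viability is the ratio of treated-well to vehicle-well nuclei counts, with each value a median of duplicate plates.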

Compound in assay [2]: N#CC1(c2ccc(NC(=O)c3cccnc3NCc3ccncc3)cc2)CCCC1 [Apatinib] + Cc1cc(Nc2cc(N3CCN(C)CC3)nc(Sc3ccc(NC(=O)C4CC4)cc3)n2)n[nH]1 [Tozasertib] (partner 0.1 µM)
Summed up: as §1

Compound in assay [3]: CN(C)C(=N)NC(=N)N [Metformin] + NC(=O)Nc1cc(-c2cccc(F)c2)sc1C(=O)N[C@H]1CCCNC1 [AZD7762] (partner 0.2 µM)
The procedure, abridged:
as §1

Compound in assay [4]: N#CC1(c2ccc(NC(=O)c3cccnc3NCc3ccncc3)cc2)CCCC1 [Apatinib] + CC1(C)CCC(c2ccc(Cl)cc2)=C(CN2CCN(c3ccc(C(=O)NS(=O)(=O)c4ccc(N[C@H](CCN5CCOCC5)CSc5ccccc5)c(S(=O)(=O)C(F)(F)F)c4)cc3)CC2)C1 [Navitoclax] (partner 0.5 µM)
The procedure, abridged: as §1

Regarding NCI-H460, the relative viability in assay [1] (first compound 0.08 µM) worked out at 0.188; in assay [1] (first compound 0.253 µM), 0.191; in assay [1] (first compound 0.8 µM) it was 0.103; in assay [1] (first compound 2.53 µM) it was 0.182; in assay [1] (first compound 8 µM) it was 0.137; in assay [2] (first compound 0.08 µM), 0.576. The relative viability came to 0.51 in assay [2] (first compound 0.253 µM); 0.223 in assay [2] (first compound 0.8 µM); 0.0517 in assay [2] (first compound 2.53 µM); 0.053 in assay [2] (first compound 8 µM); 0.632 in assay [3] (first compound 31.62 µM); 0.676 in assay [3] (first compound 100 µM). The relative viability in assay [3] (first compound 316.23 µM) was determined as 0.433; in assay [3] (first compound 1000 µM), 0.553; in assay [4] (first compound 0.08 µM) it was 1.1; in assay [4] (first compound 0.253 µM), 1.14; in assay [4] (first compound 0.8 µM) it was 1.03; in assay [4] (first compound 2.53 µM), 1.06. In addition, the relative viability in assay [4] (first compound 8 µM) is 1.05.

For the origin of these results see the supplement of paper PMC10307832.
